Measured values from patent US8124766B2, “Inhibitors of diacylglycerol acyltransferase” (Madrigal Pharmaceuticals, Inc., priority 2008, dated 2012).
Counter-ions that a name gives are not always drawn.

Each compound was assayed on DGAT (assay: DGAT Phospholipid FlashPlate Assay). Conditions: DGAT pellet, DAG-coated PL-FlashPlate, 14C-Pal-CoA, 37° C. for 1 hour; read-out: DGAT Inhibition Activity IC50.
Format: biochemical
Method: DGAT Phospholipid FlashPlate Assay
Materials for the assay were: PL-FlashPlate: Phospholipid FlashPlates from PerkinElmer, catalog number SMP108; DAG (1,2-Dioleoyl-sn-glycerol) 10 mM suspended in water containing 0.1% Triton X-100; ^14C-Pal-CoA (palmitoyl coenzyme A, [palmitoyl-1-^14C]) from PerkinElmer, catalog number NEC-555 with a specific activity of 55 mCi/mmol; and DGAT pellet, with a protein concentration of 9.85 mg/ml.
Aqueous buffers were prepared or purchased as follows: The coating buffer (CB) was purchased from PerkinElmer, catalog number SMP900A; the reaction buffer (RB) was 50 mM Tris-HCl, pH 7.5, 100 mM NaCl, 0.01% BSA in water; the washing buffer (WB) is 50 mM Tris-HCl, pH 7.5, 100 mM NaCl, 0.05% deoxycholic acid sodium salt in water; the dilution buffer (DB) was 50 mM Tris-HCl, pH 7.5, 100 mM NaCl, 1 mM EDTA, 0.2% Triton X-100 in water.
1,2-Dioleoyl-sn-glycerol (DAG, 10 mmoles) was diluted to 500 μM with coating buffer (CB). The diluted DAG solution was then added to 384-well PL-FlashPlates at 60 μl per well, and incubated at room temperature for 2 days. The coated plates were then washed twice with washing buffer (WB) before use. Test compounds were serial diluted to 2000, 666.7, 222.2, 74.1, 24.7, 8.2, 2.7 and 0.9 μM in 100% DMSO. Diluted compound were further diluted 10 fold with reaction buffer (RB). ^14C-Pal-CoA was diluted to 8.3 μM with RB. The DGAT pellet was diluted to 0.13 mg protein/ml with dilution buffer (DB) immediately before it was added to the PL-FlashPlates to start the reaction. 20 μl of the RB-diluted compounds (or 10% DMSO in RB for Total and Blank), 15 μl of RB diluted 14C-Pal-CoA and 15 μl of DB diluted DGAT pellet (DB without DGAT for Blanks) were transferred to each well of the PL-FlashPlates. The reaction mixtures were incubated at 37° C. for 1 hour. The reactions were stopped by washing 3 times with WB. Plates were sealed with Top-seal and read on a Topcount instrument.
Calculation of IC50: The IC50 values for each compound were generated using an Excel template. The Topcount rpm readings of Total and Blank were used as 0% and 100% inhibition. The percent inhibition values of reactions in the presence of compounds were calculated, and plotted against compound concentrations. All data were fitted into a Dose Response One Site model (4 parameter logistic model) as the following: (A+((B−A)/(1+((x/C)^D)))), with A and B as the bottom and top of the curve (highest and lowest inhibition), respectively, and C as IC50 and D as Hill Coefficient of the compound.

`CCn1c(C(=O)Nc2ccc(N3CCN(C(=O)CC(C(=O)O)C4CCCCC4)CC3)cc2)cc2c(Cl)c(Cl)ccc21` (centres unmarked) [Example 63, 2-Cyclohexyl-4-(4-{4-[(4,5-dichloro-1-ethyl-1H-indole-2-carbonyl)-amino]-phenyl}-piperazin-1-yl)-4-oxo-butyric acid hydrochloride] and `CCn1c(C(=O)Nc2ccc(C3CCN(C(=O)CC4(C(=O)O)CCCC4)CC3)cc2)cc2c(Cl)c(Cl)ccc21` [Example 62, 1-[2-(4-{4-[(4,5-Dichloro-1-ethyl-1H-indole-2-carbonyl)-amino]-phenyl}-piperidin-1-yl)-2-oxo-ethyl]-cyclopentanecarboxylic acid] are within 1.5-fold of each other in IC50: 351 nM for the first, 240 nM for the second.

`CCOC(=O)N1CC[C@H](Nc2ccc(NC(=O)c3cc4cc(Br)ccc4n3CC)cn2)C1` [Example 50, (S)-3-{5-[(5-Bromo-1-ethyl-1H-indole-2-carbonyl)-amino]-pyridin-2-ylamino}-pyrrolidine-1-carboxylic acid ethyl ester hydrochloride] and `CCOC(=O)N1CC[C@H](Nc2ccc(NC(=O)c3cc4cc(Cl)ccc4n3CC)cn2)C1` [Example 56, (S)-3-{5-[(5-Chloro-1-ethyl-1H-indole-2-carbonyl)-amino]-pyridin-2-ylamino}-pyrrolidine-1-carboxylic acid ethyl ester] are within 1.5-fold of each other in IC50: 929 nM for the first, 671 nM for the second.

Going from `COc1cccc2c(C)c(C(=O)Nc3ccc(N4CCN(C(=O)OC(C)(C)C)CC4)cc3)[nH]c12` [Example 71, 4-{4-[(7-Methoxy-3-methyl-1H-indole-2-carbonyl)-amino]-phenyl}-piperazine-1-carboxylic acid tert-butyl ester] to `CC(C)(C)OC(=O)N1CCN(c2ccc(NC(=O)c3cc4c(Cl)cccc4s3)cc2)CC1` [Example 24, 4-{4-[(4-Chloro-benzo[b]thiophene-2-carbonyl)-amino]-phenyl}-piperazine-1-carboxylic acid tert-butyl ester], the IC50 rises from 188 nM to 512 nM (2.7-fold).

Going from `CCn1c(C(=O)Nc2ccc(N3CCN(C(=O)CC(C)(C)C(=O)O)CC3)nc2)cc2c(Cl)c(Cl)ccc21` [Example 19, 4-(4-{5-[(4,5-Dichloro-1-ethyl-1H-indole-2-carbonyl)-amino]-pyridin-2-yl}-piperazin-1-yl)-2,2-dimethyl-4-oxo-butyric acid] to `CCn1c(C(=O)Nc2ccc(N3CCN(C(=O)CC(C)(C)C(=O)O)CC3)nc2)cc2c(C(F)(F)F)cccc21` [Example 15, 4-(4-{5-[(1-Ethyl-4-trifluoromethyl-1H-indole-2-carbonyl)-amino]-pyridin-2-yl}-piperazin-1-yl)-2,2-dimethyl-4-oxo-butyric acid], the IC50 rises from 80 nM to 183 nM (2.3-fold). The first is the more potent here.

First: CCOc1cccc2c1cc(C(=O)Nc1ccc(N3CCN(C(=O)[C@H]4CC[C@H](C(=O)O)CC4)CC3)cc1)n2CC [Example 29, trans-4-(4-{4-[(4-Ethoxy-1-ethyl-1H-indole-2-carbonyl)-amino]-phenyl}-piperazine-1-carbonyl)-cyclohexanecarboxylic acid]
Second: CCCOc1cccc2c1cc(C(=O)Nc1ccc(N3CCN(C(=O)CC(C)(C)C(=O)O)CC3)nc1)n2CC [Example 11, 4-(4-{5-[(1-Ethyl-4-propoxy-1H-indole-2-carbonyl)-amino]-pyridin-2-yl}-piperazin-1-yl)-2,2-dimethyl-4-oxo-butyric acid]
The IC50 of the first is 9.3-fold higher: 980 nM for the first, 105 nM for the second.

Going from `CCOc1cccc2c1cc(C(=O)Nc1ccc(O[C@H]3CCN(C(=O)OC(C)(C)C)C3)cc1)n2CC` [Example 65, (S)-3-{4-[(4-Ethoxy-1-ethyl-1H-indole-2-carbonyl)-amino]-phenoxy}-pyrrolidine-1-carboxylic acid tert-butyl ester] to `CCOC(=O)N1CCC(Oc2ccc(NC(=O)c3[nH]c4c(OC)cccc4c3C)cc2)C1` (centres unmarked) [Example 73, 3-{4-[(7-Methoxy-3-methyl-1H-indole-2-carbonyl)-amino]-phenoxy}-pyrrolidine-1-carboxylic acid ethyl ester], the IC50 falls from 701 nM to 90 nM (7.8-fold). The second is the more potent here.

Going from `CCn1c(C(=O)Nc2ccc(N3CCN(C(=O)OC(C)(C)C)CC3)nc2)cc2c(OC)c(OC)ccc21` [Example 22, 4-{5-[(1-Ethyl-4,5-dimethoxy-1H-indole-2-carbonyl)-amino]-pyridin-2-yl}-piperazine-1-carboxylic acid tert-butyl ester] to `CC(C)(C)OC(=O)N1CCN(c2ccc(NC(=O)c3cc4cc(Br)ccc4s3)cn2)CC1` [Example 3, 4-{5-[(5-Bromo-benzo[b]thiophene-2-carbonyl)-amino]-pyridin-2-yl}-piperazine-1-carboxylic acid tert-butyl ester], the IC50 rises from 86 nM to 479 nM (5.6-fold).

Going from `CCn1c(C(=O)Nc2ccc(N3CCN(c4ccc(C(=O)O)cc4)CC3)cc2)cc2c(Cl)c(Cl)ccc21` [Example 70, 4-(4-{4-[(4,5-Dichloro-1-ethyl-1H-indole-2-carbonyl)-amino]-phenyl}-piperazin-1-yl)-benzoic acid] to `CCOC(=O)N1CC[C@H](Nc2ccc(NC(=O)c3cc4c(Cl)c(Cl)ccc4n3CC)cn2)C1` [Example 57, (S)-3-{5-[(4,5-Dichloro-1-ethyl-1H-indole-2-carbonyl)-amino]-pyridin-2-ylamino}-pyrrolidine-1-carboxylic acid ethyl ester hydrochloride], the IC50 rises from 319 nM to 548 nM (1.7-fold).

`CCOC(=O)N1CC[C@H](Nc2ccc(NC(=O)c3cc4cc(C(F)(F)F)ccc4s3)cn2)C1` [Example 49, (S)-3-{5-[(5-Trifluoromethyl-benzo[b]thiophene-2-carbonyl)-amino]-pyridin-2 ylamino}-pyrrolidine-1-carboxylic acid ethyl ester hydrochloride] and `COCCN(C)c1ccc(NC(=O)c2cc3ccccc3s2)cn1` [Example 34, Benzo[b]thiophene-2-carboxylic acid {6-[(2-methoxy-ethyl)-methyl-amino]-pyridin-3-yl}-amide] are within 1.5-fold of each other in IC50: 594 nM for the first, 683 nM for the second.

`CCOC(=O)N1CCC(Oc2ccc(NC(=O)c3oc4c(OCC)c(OCC)ccc4c3C)cc2)C1` (centres unmarked) [Example 80, 3-{4-[(6,7-Diethoxy-3-methyl-benzofuran-2-carbonyl)-amino]-phenoxy}-pyrrolidine-1-carboxylic acid ethyl ester] and `CCOC(=O)N1CCC(Oc2ccc(NC(=O)c3oc4ccccc4c3COC)cc2)C1` (centres unmarked) [Example 81, 3-{4-[(3-Methoxymethyl-benzofuran-2-carbonyl)-amino]-phenoxy}-pyrrolidine-1-carboxylic acid ethyl ester] are within 1.5-fold of each other in IC50: 583 nM for the first, 720 nM for the second.

First: COCCN(C)c1ccc(NC(=O)c2cc3cc(Cl)ccc3n2C)cn1 [Example 42, 5-Chloro-1-methyl-1H-indole-2-carboxylic acid {6-[(2-methoxy-ethyl)-methyl-amino]-pyridin-3-yl}-amide hydrochloride]
Second: CCn1c(C(=O)Nc2ccc(N(C)CCOC)nc2)cc2cc(Cl)ccc21 [Example 43, 5-Chloro-1-ethyl-4H-indole-2-carboxylic acid {6-[(2-methoxy-ethyl)-methyl-amino]-pyridin-3-yl}-amide hydrochloride]
The IC50 of the first is 4.7-fold higher: 750 nM for the first, 161 nM for the second.

Work on `COCCN(C)c1ccc(NC(=O)c2oc3c(F)cccc3c2C)cn1` [Example 82, 7-Fluoro-3-methyl-benzofuran-2-carboxylic acid {6-[(2-methoxy-ethyl)-methyl-amino]pyridin-3-yl}-amide] yielded an IC50 of 430 nM.
